Source: patent US20100190747A1, “Fused ring compound and use thereof” (priority 2009, published 2010)

biological target: T1, delta-5-desaturase (Rattus norvegicus, UniProt Q920R3); assay: Inhibitory activity on delta-5-desaturase (rat liver microsomal fraction, 14C-eicosatrienoic acid, TLC); format: biochemical; conditions: test compound at 10 μM, room temperature, 120 minutes
T1 construct: the microsomal fraction of a rat river (10 μl), which had been diluted to 3 mg/ml; from tissue; host or cells: rat liver microsomal fraction
Method: An inhibitory activity of a test compound on delta-5-desaturase was measured according to the method described herein below. To a DMSO solution of the test compound which had been previously prepared, secondary dilution was carried out by using a buffer (300 mM NaH2PO4 [pH 7.4], 450 mM KCl, 30 mM NaF, 9 mM MgCl2, 4.5 mM glutathione [reduced form], 0.3% BSA [fatty acid free, SIGMA]). This diluent compound (10 μl) was added in a 96-well deep well block made of polypropylene, and then the microsomal fraction of a rat river (10 μl), which had been diluted to 3 mg/ml by using a microsome buffer (10 mM Tris-HCl [pH 7.4], 1 mM EDTA, and 250 mM sucrose), was added thereto. The enzyme reaction was initiated by adding 10 μl of 9 mM NADH, 9 mM ATP, 0.9 mM CoA and 10 μCi/ml (8E,11E,14E)-(1-^14C)eicosa-8,11,14-trienoic acid (PerkinElmer Inc.). The enzyme reaction was carried out at room temperature for 120 minutes, and then terminated by addition of 2.5 M NaOH (10 μl). Upon the completion of the reaction, the plate was covered with plate seal and incubated overnight in a dry heater of which temperature was set at 55° C. for saponification. Based on Bligh & Dyer method which had been described in a known document, Canadian Journal of Biochemistry and Physiology (Can. J. Biochem. Physiol.), Vol. 37, page 911, 1959), the solvent extraction of fatty acid was carried out by adding 200 μl of formic acid:methanol:chloroform (1:6:3), keeping the mixture as a single layer for a while, stirring the mixture to a sufficient level, and adding 120 μl of pure water to separate the mixture into two layers. 10 μl of the bottom chloroform layer was spotted on a reverse phase TLC plate (RP-18, 1154230001, Merck Japan, Ltd.) and then developed with acetonitrile:pure water:acetic acid (95:4.5:0.5). The TLC plate obtained after drying was transferred to an Imaging Plate (Fuji Photo Film Co., Ltd.) for more than 5 hours. Detection was carried out by using BAS-5000 (Fuji Photo Film Co., Ltd.). Numerization of thus-obtained image was carried out by using Multi Gauge Ver 2.3 (Fuji Photo Film Co., Ltd.) and an inhibitory ratio (%) of the test compound at 10 μM on delta-5-desaturase was obtained.

T1 sequence (Q920R3 whole entry): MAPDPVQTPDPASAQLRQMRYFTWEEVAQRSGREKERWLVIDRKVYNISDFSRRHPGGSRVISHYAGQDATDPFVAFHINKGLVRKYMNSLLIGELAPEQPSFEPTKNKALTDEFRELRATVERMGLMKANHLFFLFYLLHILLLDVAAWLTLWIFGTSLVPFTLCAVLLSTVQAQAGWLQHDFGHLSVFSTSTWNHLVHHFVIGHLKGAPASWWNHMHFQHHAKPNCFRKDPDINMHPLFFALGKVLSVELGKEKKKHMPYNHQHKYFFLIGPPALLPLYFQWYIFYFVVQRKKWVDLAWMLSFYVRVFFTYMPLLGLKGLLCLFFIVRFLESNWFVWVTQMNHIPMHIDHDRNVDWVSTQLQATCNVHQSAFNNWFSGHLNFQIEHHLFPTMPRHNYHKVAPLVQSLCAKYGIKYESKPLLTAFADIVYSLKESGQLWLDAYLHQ

inhibition at 10 µM [%]	SMILES
100	COCCOCCCSc1nc2cc[nH]c2c(=O)n1-c1ccc(OCC2CC2)cc1 [Example 141, 3-[4-(Cyclopropylmethoxy)phenyl]-2-{[3-(2-methoxyethoxy)propyl]sulfanyl}-3,5-dihydro-4H-pyrrolo[3,2-d]pyrimidin-4-one]
98	CCOCCOCCSc1nc2cc[nH]c2c(=O)n1-c1ccc(OCC2CC2)cc1 [Example 142, 3-[4-(Cyclopropylmethoxy)phenyl]-2-{[2-(2-ethoxyethoxy)ethyl]sulfanyl}-3,5-dihydro-4H-pyrrolo[3,2-d]pyrimidin-4-one]
101	CCOCCSc1nc2cc[nH]c2c(=O)n1-c1ccc(OCC2CC2)cc1 [Example 143, 3-[4-(Cyclopropylmethoxy)phenyl]-2-[(2-ethoxyethyl)sulfanyl]-3,5-dihydro-4H-pyrrolo[3,2-d]pyrimidin-4-one]
101	O=c1c2[nH]ccc2nc(SCCO)n1-c1ccc(OCC2CC2)cc1 [Example 144, 3-[4-(Cyclopropylmethoxy)phenyl]-2-[(2-hydroxyethyl)sulfanyl]-3,5-dihydro-4H-pyrrolo[3,2-d]pyrimidin-4-one]
98	O=c1c2[nH]ccc2nc(SCCOC2CCOCC2)n1-c1ccc(OCC2CC2)cc1 [Example 147, 3-[4-(Cyclopropylmethoxy)phenyl]-2-{[2-(tetrahydro-2H-pyran-4-yloxy)ethyl]sulfanyl}-3,5-dihydro-4H-pyrrolo[3,2-d]pyrimidin-4-one]
98	CCSc1nc2cc[nH]c2c(=O)n1-c1ccc(OCC2CC2)cc1 [Example 153, 3-[4-(Cyclopropylmethoxy)phenyl]-2-(ethylsulfanyl)-3,5-dihydro-4H-pyrrolo[3,2-d]pyrimidin-4-one]
99	CS(=O)(=O)CCCSc1nc2cc[nH]c2c(=O)n1-c1ccc(OCC2CC2)cc1 [Example 154, 3-[4-(Cyclopropylmethoxy)phenyl]-2-{[3-(methylsulfonyl)propyl]sulfanyl}-3,5-dihydro-4H-pyrrolo[3,2-d]pyrimidin-4-one]
99	O=c1c2[nH]ccc2nc(SCCC2(O)CCOCC2)n1-c1ccc(OCC2CC2)cc1 [Example 155, 3-[4-(Cyclopropylmethoxy)phenyl]-2-{[2-(4-hydroxytetrahydro-2H-pyran-4-yl)ethyl]sulfanyl}-3,5-dihydro-4H-pyrrolo[3,2-d]pyrimidin-4-one]
101	O=c1c2[nH]ccc2nc(SCCCOC2CCOCC2)n1-c1ccc(OCC2CC2)cc1 [Example 157, 3-[4-(Cyclopropylmethoxy)phenyl]-2-{[3-(tetrahydro-2H-pyran-4-yloxy)propyl]sulfanyl}-3,5-dihydro-4H-pyrrolo[3,2-d]pyrimidin-4-one]
99	O=c1c2[nH]ccc2nc(SCCCOC2CCOCC2)n1-c1ccc(OCC(F)(F)F)cc1 [Example 158, 2-{[3-(Tetrahydro-2H-pyran-4-yloxy)propyl]sulfanyl}-3-[4-(2,2,2-trifluoroethoxy)phenyl]-3,5-dihydro-4H-pyrrolo[3,2-d]pyrimidin-4-one]
99	O=c1c2[nH]ccc2nc(SCCOC2CCOCC2)n1-c1ccc(OCC(F)(F)F)cc1 [Example 159, 2-{[2-(Tetrahydro-2H-pyran-4-yloxy)ethyl]sulfanyl}-3-[4-(2,2,2-trifluoroethoxy)phenyl]-3,5-dihydro-4H-pyrrolo[3,2-d]pyrimidin-4-one]
103	CCSc1nc2cc[nH]c2c(=O)n1-c1ccc(OCC2CC2)c(Cl)c1 [Example 162, 3-[3-Chloro-4-(cyclopropylmethoxy)phenyl]-2-(ethylsulfanyl)-3,5-dihydro-4H-pyrrolo[3,2-d]pyrimidin-4-one]
99	CCOCCOCCSc1nc2cc[nH]c2c(=O)n1-c1ccc(OCC2CC2)c(Cl)c1 [Example 163, 3-[3-Chloro-4-(cyclopropylmethoxy)phenyl]-2-{[2-(2-ethoxyethoxy)ethyl]sulfanyl}-3,5-dihydro-4H-pyrrolo[3,2-d]pyrimidin-4-one]
101	CC(C)S(=O)(=O)CCCSc1nc2cc[nH]c2c(=O)n1-c1ccc(OCC2CC2)cc1 [Example 164, 3-[4-(Cyclopropylmethoxy)phenyl]-2-({3-[(1-methylethyl)sulfonyl]propyl}sulfanyl)-3,5-dihydro-4H-pyrrolo[3,2-d]pyrimidin-4-one]
99	O=c1c2[nH]ccc2nc(SCCCS(=O)(=O)CC2CC2)n1-c1ccc(OCC(F)(F)F)cc1 [Example 165, 2-({3-[(Cyclopropylmethyl)sulfonyl]propyl}sulfanyl)-3-[4-(2,2,2-trifluoroethoxy)phenyl]-3,5-dihydro-4H-pyrrolo[3,2-d]pyrimidin-4-one]
101	O=c1c2[nH]ccc2nc(SCCCS(=O)(=O)CC2CC2)n1-c1ccc(OCC2CC2)cc1 [Example 166, 3-[4-(Cyclopropylmethoxy)phenyl]-2-({3-[(cyclopropylmethyl)sulfonyl]propyl}sulfanyl)-3,5-dihydro-4H-pyrrolo[3,2-d]pyrimidin-4-one]
101	N#CCCNC(=O)CCCSc1nc2c(C3CC3)c[nH]c2c(=O)n1-c1ccc(OCC(F)(F)F)cc1 [Example 170, N-(2-cyanoethyl)-4-({7-cyclopropyl-4-oxo-3-[4-(2,2,2-trifluoroethoxy)phenyl]-4,5-dihydro-3H-pyrrolo[3,2-d]pyrimidin-2-yl}sulfanyl)butanamide]
98	CCc1c[nH]c2c(=O)n(-c3ccc(OCC(F)(F)F)cc3)c(SCCCC(=O)NCCC#N)nc12 [Example 171, N-(2-cyanoethyl)-4-({7-ethyl-4-oxo-3-[4-(2,2,2-trifluoroethoxy)phenyl]-4,5-dihydro-3H-pyrrolo[3,2-d]pyrimidin-2-yl}sulfanyl)butanamide]
99	Cc1c[nH]c2c(=O)n(-c3ccc(OCC(F)(F)F)cc3)c(SCCCC(=O)NCCC#N)nc12 [Example 172, N-(2-cyanoethyl)-4-({7-methyl-4-oxo-3-[4-(2,2,2-trifluoroethoxy)phenyl]-4,5-dihydro-3H-pyrrolo[3,2-d]pyrimidin-2-yl}sulfanyl)butanamide]
97	CCOc1ccc(-n2c(SCC(=O)NCCC#N)nc3[nH]ccc3c2=O)cc1 [Example 173, N-(2-cyanoethyl)-2-{[3-(4-ethoxyphenyl)-4-oxo-4,7-dihydro-3H-pyrrolo[2,3-d]pyrimidin-2-yl]sulfanyl}acetamide]
100	CC(C)(C)COc1ccc(-n2c(SCCCC(=O)NCCC#N)nc3[nH]ccc3c2=O)cc1 [Example 174, N-(2-cyanoethyl)-4-({3-[4-(2,2-dimethylpropoxy)phenyl]-4-oxo-4,7-dihydro-3H-pyrrolo[2,3-d]pyrimidin-2-yl}sulfanyl)butanamide]
100	N#CCCNC(=O)CCCSc1nc2[nH]ccc2c(=O)n1-c1ccc(OCC2CC2(F)F)cc1 (centres unmarked) [Example 177, N-(2-cyanoethyl)-4-[(3-{4-[(2,2-difluorocyclopropyl)methoxy]phenyl}-4-oxo-4,7-dihydro-3H-pyrrolo[2,3-d]pyrimidin-2-yl)sulfanyl]butanamide]

SMILES	inhibition at 10 µM [%]
CC(C)(C)CCOc1ccc(-n2c(SCCCC(=O)NCCC#N)nc3[nH]ccc3c2=O)cc1 [Example 176, N-(2-cyanoethyl)-4-({3-[4-(3,3-dimethylbutoxy)phenyl]-4-oxo-4,7-dihydro-3H-pyrrolo[2,3-d]pyrimidin-2-yl}sulfanyl)butanamide]	98
